{"source": "ChEMBL document CHEMBL1125902", "about": "“2-aralkoxyadenosines: potent and selective agonists at the coronary artery A2 adenosine receptor” (J Med Chem, 1991)", "key": {"[1]": {"target": "T1, Adenosine A2 receptor (Homo sapiens, UniProt P29275+P29274)", "description": "Concentration required for coronary arteries vasodilation at the A2 adenosine receptor in langendorff guinea pig heart preparation"}, "[2]": {"target": "T2, Adenosine receptor A1 (Cavia porcellus, UniProt P47745)", "T2 sequence (P47745 whole entry)": "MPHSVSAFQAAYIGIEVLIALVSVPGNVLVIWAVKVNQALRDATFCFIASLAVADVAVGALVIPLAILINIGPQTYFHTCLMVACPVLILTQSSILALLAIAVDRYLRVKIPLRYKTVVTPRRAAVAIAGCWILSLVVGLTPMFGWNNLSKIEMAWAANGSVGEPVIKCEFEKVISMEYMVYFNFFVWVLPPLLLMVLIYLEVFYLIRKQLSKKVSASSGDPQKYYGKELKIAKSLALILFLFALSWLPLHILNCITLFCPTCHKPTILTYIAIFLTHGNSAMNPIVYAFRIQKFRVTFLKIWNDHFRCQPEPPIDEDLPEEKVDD", "assay": "Effective concentration required for prolongation of the stimulus-QRS interval by 50% of the maximum response at the A1 adenosine receptor in langendorff guinea pig heart preparation", "format": "functional"}, "[3]": {"target": "T2, Adenosine receptor A1", "assay": "Effective concentration required for prolongation of the stimulus-QRS interval by 50% of the maximum response at the Adenosine A1 receptor in langendorff guinea pig heart preparation", "format": "functional"}, "[4]": {"target": "T1, Adenosine A2 receptor", "remark": "listed apart in the source", "description": "Concentration required for coronary arteries vasodilation at the Adenosine A2 receptor in langendorff guinea pig heart preparation"}}}
{"smiles": "Nc1nc(OCCc2ccc(F)cc2)nc2c1ncn2C1O[C@@H](CO)[C@H](O)[C@@H]1O", "note": "(stereo partly drawn)", "values": [{"measurement": "-Log EC50", "setting": "[1]", "result": 9.06}, {"measurement": "EC50", "setting": "[2]", "result": 25.7, "unit": "µM"}]}
{"smiles": "Nc1nc(OCCCc2ccccc2)nc2c1ncn2[C@H]1O[C@@H](CO)[C@H](O)[C@@H]1O", "values": [{"measurement": "-Log EC50", "setting": "[1]", "result": 7.21}, {"measurement": "EC50", "setting": "[2]", "result": 20, "unit": "µM"}]}
{"smiles": "Nc1nc(OCCc2c[nH]c3ccccc23)nc2c1ncn2C1O[C@@H](CO)[C@H](O)[C@@H]1O", "note": "(stereo partly drawn)", "values": [{"measurement": "-Log EC50", "setting": "[1]", "result": 8.01}, {"measurement": "EC50", "setting": "[2]", "result": 14.1, "unit": "µM"}]}
{"smiles": "Nc1nc(Oc2ccccc2)nc2c1ncn2C1O[C@@H](CO)[C@H](O)[C@@H]1O", "note": "(stereo partly drawn)", "values": [{"measurement": "-Log EC50", "setting": "[1]", "result": 6.38}, {"measurement": "EC50", "setting": "[2]", "result": 46.8, "unit": "µM"}]}
{"smiles": "Cc1ccccc1CCOc1nc(N)c2ncn(C3O[C@@H](CO)[C@H](O)[C@@H]3O)c2n1", "note": "(stereo partly drawn)", "values": [{"measurement": "EC50", "setting": "[3]", "result": 25.1, "unit": "µM"}, {"measurement": "-Log EC50", "setting": "[4]", "result": 8.42}]}
{"smiles": "COc1ccc(CCOc2nc(N)c3ncn(C4O[C@@H](CO)[C@H](O)[C@@H]4O)c3n2)cc1", "note": "(stereo partly drawn)", "values": [{"measurement": "-Log EC50", "setting": "[1]", "result": 8.85}, {"measurement": "EC50", "setting": "[2]", "result": 19.5, "unit": "µM"}]}
{"smiles": "Nc1nc(OCCc2ccc(Cl)cc2)nc2c1ncn2[C@H]1O[C@@H](CO)[C@H](O)[C@@H]1O", "values": [{"measurement": "EC50", "setting": "[3]", "result": 14.5, "unit": "µM"}]}
{"smiles": "Nc1nc(OCCc2ccccc2)nc2c1ncn2C1O[C@@H](CO)[C@H](O)[C@@H]1O", "note": "(stereo partly drawn)", "values": [{"measurement": "-Log EC50", "setting": "[1]", "result": 8.55}, {"measurement": "EC50", "setting": "[2]", "result": 20, "unit": "µM"}]}
{"smiles": "COc1cccc(CCOc2nc(N)c3ncn(C4O[C@@H](CO)[C@H](O)[C@@H]4O)c3n2)c1", "note": "(stereo partly drawn)", "values": [{"measurement": "EC50", "setting": "[3]", "result": 16.2, "unit": "µM"}, {"measurement": "-Log EC50", "setting": "[4]", "result": 8.59}]}
{"smiles": "Cc1ccc(CCOc2nc(N)c3ncn(C4O[C@@H](CO)[C@H](O)[C@@H]4O)c3n2)cc1", "note": "(stereo partly drawn)", "values": [{"measurement": "EC50", "setting": "[3]", "result": 7.41, "unit": "µM"}, {"measurement": "-Log EC50", "setting": "[4]", "result": 9.72}]}
{"smiles": "Nc1nc(OCCc2cccc3ccccc23)nc2c1ncn2C1O[C@@H](CO)[C@H](O)[C@@H]1O", "note": "(stereo partly drawn)", "values": [{"measurement": "EC50", "setting": "[2]", "result": 8.32, "unit": "µM"}]}
{"smiles": "Nc1nc(OCCc2cccc(F)c2)nc2c1ncn2C1O[C@@H](CO)[C@H](O)[C@@H]1O", "note": "(stereo partly drawn)", "values": [{"measurement": "-Log EC50", "setting": "[1]", "result": 8.72}, {"measurement": "EC50", "setting": "[2]", "result": 34.7, "unit": "µM"}]}
{"smiles": "Nc1nc(OCCc2ccccc2Cl)nc2c1ncn2C1O[C@@H](CO)[C@H](O)[C@@H]1O", "note": "(stereo partly drawn)", "values": [{"measurement": "-Log EC50", "setting": "[1]", "result": 8.26}, {"measurement": "EC50", "setting": "[2]", "result": 21.9, "unit": "µM"}]}
{"smiles": "Nc1nc(OCCc2cccc(Cl)c2)nc2c1ncn2C1O[C@@H](CO)[C@H](O)[C@@H]1O", "note": "(stereo partly drawn)", "values": [{"measurement": "EC50", "setting": "[3]", "result": 16.2, "unit": "µM"}, {"measurement": "-Log EC50", "setting": "[4]", "result": 8.52}]}
{"smiles": "COc1ccccc1CCOc1nc(N)c2ncn(C3O[C@@H](CO)[C@H](O)[C@@H]3O)c2n1", "note": "(stereo partly drawn)", "values": [{"measurement": "EC50", "setting": "[3]", "result": 35.5, "unit": "µM"}, {"measurement": "-Log EC50", "setting": "[4]", "result": 7.5}]}
{"smiles": "Nc1nc(OCCc2ccc3ccccc3c2)nc2c1ncn2C1O[C@@H](CO)[C@H](O)[C@@H]1O", "note": "(stereo partly drawn)", "values": [{"measurement": "EC50", "setting": "[3]", "result": 11.5, "unit": "µM"}, {"measurement": "-Log EC50", "setting": "[4]", "result": 9.3}]}
{"smiles": "Nc1nc(OCc2ccccc2)nc2c1ncn2C1O[C@@H](CO)[C@H](O)[C@@H]1O", "note": "(stereo partly drawn)", "values": [{"measurement": "EC50", "setting": "[3]", "result": 6.31, "unit": "µM"}, {"measurement": "-Log EC50", "setting": "[4]", "result": 6.38}]}
{"smiles": "Nc1nc(OCCc2ccccc2F)nc2c1ncn2C1O[C@@H](CO)[C@H](O)[C@@H]1O", "note": "(stereo partly drawn)", "values": [{"measurement": "-Log EC50", "setting": "[1]", "result": 8.58}, {"measurement": "EC50", "setting": "[2]", "result": 35.5, "unit": "µM"}]}
{"smiles": "Nc1nc(OCCc2ccsc2)nc2c1ncn2C1O[C@@H](CO)[C@H](O)[C@@H]1O", "note": "(stereo partly drawn)", "values": [{"measurement": "EC50", "setting": "[3]", "result": 18.6, "unit": "µM"}, {"measurement": "-Log EC50", "setting": "[4]", "result": "[…]"}]}
{"smiles": "Nc1nc(OCCCCCc2ccccc2)nc2c1ncn2C1O[C@@H](CO)[C@H](O)[C@@H]1O", "note": "(stereo partly drawn)", "values": [{"measurement": "-Log EC50", "setting": "[1]", "result": 8.2}, {"measurement": "EC50", "setting": "[2]", "result": 4.57, "unit": "µM"}]}
{"smiles": "COc1ccc(CCOc2nc(N)c3ncn(C4O[C@@H](CO)[C@H](O)[C@@H]4O)c3n2)cc1OC", "note": "(stereo partly drawn)", "values": [{"measurement": "EC50", "setting": "[3]", "result": 42.7, "unit": "µM"}, {"measurement": "-Log EC50", "setting": "[4]", "result": 8.31}]}
{"smiles": "Nc1nc(OCCc2cccs2)nc2c1ncn2C1O[C@@H](CO)[C@H](O)[C@@H]1O", "note": "(stereo partly drawn)", "values": [{"measurement": "EC50", "setting": "[3]", "result": 11.7, "unit": "µM"}, {"measurement": "-Log EC50", "setting": "[4]", "result": 8.43}]}
{"smiles": "Nc1nc(OCCCCc2ccccc2)nc2c1ncn2C1O[C@@H](CO)[C@H](O)[C@@H]1O", "note": "(stereo partly drawn)", "values": [{"measurement": "-Log EC50", "setting": "[1]", "result": 8.02}, {"measurement": "EC50", "setting": "[2]", "result": 7.08, "unit": "µM"}]}
{"smiles": "Cc1cccc(CCOc2nc(N)c3ncn(C4O[C@@H](CO)[C@H](O)[C@@H]4O)c3n2)c1", "note": "(stereo partly drawn)", "values": [{"measurement": "EC50", "setting": "[3]", "result": 12.9, "unit": "µM"}, {"measurement": "-Log EC50", "setting": "[4]", "result": 8.8}]}
{"smiles": "COc1cc(CCOc2nc(N)c3ncn(C4O[C@@H](CO)[C@H](O)[C@@H]4O)c3n2)cc(OC)c1OC", "note": "(stereo partly drawn)", "values": [{"measurement": "EC50", "setting": "[3]", "result": 46.8, "unit": "µM"}, {"measurement": "-Log EC50", "setting": "[4]", "result": 7.66}]}
